Results: patent publication US20230310441A1, “TREATMENT FOR SCHIZOPHRENIA” (TAKEDA PHARMACEUTICAL COMPANY, priority 2020, published 2023)

Tests used:
[1] = system: ventral striatum activation; experiment: fMRI BOLD ventral striatum activation in the MID Reward Task; assay type: in vivo, human
From the text: After a break, subjects took the second block that comprised a battery of imaging tests; namely, brain perfusion using non-contrast arterial spin labeling MRI and fMRI scans which monitor changes in blood oxygen level-dependent (BOLD) signal. The fMRI was run in resting state without a task (resting state fMRI) and with 2 tasks (2-task fMRI) using the monetary incentive delay (MID) Reward Task and a Set-Shifting Task. After a break, subjects took the third block which comprised the Effort Expenditure for Rewards Task and the Empathic Accuracy Task. Subjects also received the Positive and Negative Syndrome Scale (PANSS), the Brief Negative Syndrome Scale (BNSS), and the Clinical Global Impression (CGI) Scales (CGI-Severity and CGI-Improvement) as a part of the PD assessment.
The BOLD signal in the average of the left and right ventral striatum activation in the MID Reward Task 3.5 h post-dose on Day 1 and the BACS composite score on Day 14 were the primary PD measures.
The observed BOLD signal was summarized (N, mean, median, SD, minimum, and maximum) by treatment (Compound (I) (overall and by dose) and placebo) and time. The BACS composite score was summarized for baseline, post-dose, and change from baseline by treatment, dose, and time.
Each of the primary PD measures was analyzed using a Bayesian normal linear model with effects for sequence, period, treatment, time (as a categorical variable), the treatment-by-time interaction, subject within treatment sequence, and baseline (for BACS only). For the BOLD fMRI, the observed value was the response variable in the model. For the BACS, the observed and the change from baseline were modeled separately. Missing values were not imputed and were not included in the model under a missing at random assumption. A diffuse normal distribution with mean zero and variance 106 was used as a prior for the regression coefficients and a diffuse inverse gamma with shape and scale parameters of 0.01 for the residual variance.
The criteria for a positive result at the IA was 70% posterior probability (or greater) of a difference between Compound (I) and placebo >0.09 in ventral striatum activation in the MID fMRI at 3.5 h post-dose on Day 1 or 70% (or greater) posterior probability of a difference between Compound (I) and placebo >2 points in the BACS composite score at Day 14.

[2] = Separate single dose oral study: half-life in rats; conditions: rat, in vivo; single dose oral administration of 5-15 mg/kg
From the text: (§1) The mean t1/2z for Compound (I) reflects the prolonged half-life of Compound (I) in humans. […] In that study, the mean human half-life of Compound (I) (approximately 11 days) was substantially higher than the 2-4 hr mean half-life observed in rats and dogs.

cerebral blood flow = experiment: Average global cerebral blood flow (pCASL MRI); assay type: in vivo, human
From the text: Whole brain maps of regional cerebral blood flow (CBF) were obtained using an ASL methodology previously reported (Hawkins et al., 2018; Dai et al., 2008). Briefly, images were acquired using a pseudo-continuous Arterial Spin Labelling sequence (pCASL) with a multi-shot, segmented 3D stack of axial spirals (8-arms) readout with a resultant spatial resolution of 2×2×3 mm. Three control-label pairs were used to derive a perfusion weighted difference image. The labelling RF pulse had duration of 1.5 s and a post-labelling delay of 1.5 s. The sequence included background suppression for optimum reduction of the static tissue signal. A Proton Density image was acquired in 48 s using the same acquisition parameters to compute the CBF map in standard physiological units (mL blood/100 g tissue/min). Two runs were acquired per visit and averaged following preprocessing.
The T2-weighted image was co-registered to the T1-weighted image prior to creation of the DARTEL template, and each session's Proton Density image was then co-registered to the T2-weighted image. The parameters for this transformation were then applied to the CBF maps, and the DARTEL flow field applied to normalize to CBF maps to MNI space, before smoothing with a 6 mm FWHM kernel.
Average global cerebral blood flow (CBF) was extracting using an SPM MNI whole brain mask in MarsBar, and was analyzed at each time point with a mixed two-way ANOVA (treatment (placebo/drug) within subject factor, dose level (40 mg/160 mg) between-subject factor) (FIG. 4).

[3] = Separate single dose oral study: half-life in humans; conditions: human, in vivo; single dose oral administration
From the text: as §1

In the case of C[C@H](NC(=O)Cn1nnc2ccccc2c1=O)c1ccc(OC(F)(F)F)cc1 [Compound (I), (S)-2-(4-oxobenzo[d][1,2,3]triazin-3(4H)-yl)-N-(1-(4-(trifluoromethoxy)phenyl)ethyl)acetamide], the “ventral striatal activation relative to placebo” value ([1]; Day 1) is reported as “decrease in ventral striatal activation”, the “posterior mean (SD) for the difference to placebo, fMRI BOLD endpoint” value (from here on “posterior mean (SD) for the difference”) ([1]; Day 1, 40 mg) is reported as −0.1 (0.21) and the “posterior mean (SD) for the difference” value ([1]; Day 1, 160 mg) is reported as −0.15 (0.14). The “posterior mean (SD) for the difference” value ([1]; Day 1, overall) was −0.14 (0.11), the “ventral striatal activation relative to placebo” value ([1]; Day 14) was “dose-related increase in activation relative to placebo” and the half-life [2] was 2 to 4 h. For the same compound, the “effect of treatment on average global CBF (mixed two-way ANOVA)” value (cerebral blood flow; Day 1, 40 mg/160 mg vs placebo, F(1, 18)=5.978, p=0.025) was “significant effect of treatment”, the “effects on cerebral blood flow compared to placebo” value (cerebral blood flow; Day 1 and Day 14) was “widespread and robust reductions at Day 1 followed by increases at Day 14” and the “effect of treatment on average global CBF (mixed two-way ANOVA)” value (cerebral blood flow; Day 14, 40 mg/160 mg vs placebo, F(1, 15)=3.558, p=0.079) was “no significant effect of treatment”. The half-life [3] was about 264 h.
